# Data: article PMC10484922, “Discovery of a selective and biologically active low-molecular weight antagonist of human interleukin-1β” (Nature Communications, 2023)
# Values joined by “and” are separate entries in the source; they are usually repeats but may differ in a detail not shown here. Identical values can stand only once. Like-named read-outs stand apart in the source and are kept apart here.
# Assays:
# [1] = tested on: HEK-Blue IL-1β cells stimulated with hIL-1β; experiment: HEK293 reporter gene assay, hIL-1β as trigger; type: cell-based, human; parameters: RGA HEK293, average / RGA HEK293, curve fit: unit not given here; conditions: for RGA HEK293, average / RGA HEK293, curve fit: per experiment
# Method: (§1) We used HEK-Blue™ IL-1β cells that respond specifically to IL-1 (# hkb-il1b, InvivoGen). These cells can detect IL-1α and IL-1β, as these cytokines bind to the same receptor, IL-1R1. They express a Seap reporter gene under the control of the IFN-β minimal promoter fused to five NF-kappaB and five AP-1 binding sites. Thirty microliters (300,000 cells/ml) per well of a 384-well plate were plated overnight. Cells were then stimulated with graded concentrations of cytokines (hIL-1α or hIL-1β) in the absence or presence of canakinumab (Ilaris®, ILARI LYVI 150MG 22GLW.012, batch U003 0409)[22], anakinra (Kineret®, 100 mg/0.67 ml injectable solution, Sobi)[23], or compound (S)-2 (compounds were pre-mixed for 1 h with the cytokine prior to addition to cells) and further incubated overnight before assessment of Seap activity.
# IL-1β [2] = target: T1, IL-1β (Homo sapiens, UniProt P01584); experiment: TR-FRET IL-1β/hIL-1R1 receptor displacement assay; type: biochemical
# T1 sequence (P01584 117-269): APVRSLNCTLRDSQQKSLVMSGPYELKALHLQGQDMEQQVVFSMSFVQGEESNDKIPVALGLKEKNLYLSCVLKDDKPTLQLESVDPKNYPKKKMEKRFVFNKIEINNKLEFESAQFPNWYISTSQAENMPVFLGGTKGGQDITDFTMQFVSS
# Method: After 1 h incubation at room temperature, hIL-1R1 (1–332; Alexa 647 labeled; 50 nM final concentration) and anti-His-Europium W1024 (Perkin Elmer; Cat.No. AD0401, 1 nM final concentration) were added to a final volume of 10 μl per well. […] All experiments were run in triplicates.
# IL-1β [3] = target: T1, IL-1β; experiment: SPR binding of compounds to immobilized hIL-1β; parameters: Mature hIL-1β was expressed in Escherichia coli; made in house; host or cells: Escherichia coli BL21 (DE3), pET17b
# In short: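 Avi-tagged hIL-1β (C-terminal) captured on neutravidin chip; compounds run in PBS pH 7.4, 0.05% Tween-20, 2% DMSO in multi-cycle kinetic mode, 10-concentration series. Reference- and buffer-subtracted; KD from 1:1 Langmuir steady-state fit near injection end, with kinetic fit giving kon/koff.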
# [4] = tested on: HEK-Blue IL-1β cells stimulated with hIL-1α; experiment: HEK293 reporter gene assay, hIL-1α as trigger; type: cell-based, human
# Method: as §1
# [5] = tested on: normal human dermal fibroblasts stimulated with hIL-1β; experiment: Human fibroblast IL-6 release assay, hIL-1β stimulated; type: cell-based; parameters: IL-6, average / inhibition, replicates of EXP1, EXP2, EXP3 / inhibition, Mean / IL-1beta (mean, SD): mean readout (IL-6 release): unit not given here; conditions: for inhibition, Mean / inhibition, replicates of EXP1, EXP2, EXP3: Figure 3b; for Mean OD (OD 450nm) / IL-1beta (mean, SD): mean readout (IL-6 release): Figure 3c; for Mean OD (OD 450nm): compound 500 nM; for IL-1beta (mean, SD): mean readout (IL-6 release): compound @ 50uM
# In short: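 Normal human dermal fibroblasts (neonatal, passage ≤14) treated with graded hIL-1α or hIL-1β that had been premixed 1 h with compound, then incubated 6 h. Secreted IL-6 in supernatant quantified by ELISA or HTRF.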
# [6] = IL-1beta, 0.01 uM, per experiment
# [7] = IL-1beta, 0.02 uM, per experiment
# [8] = IL-1beta, 0.1 uM, per experiment
# [9] = IL-1beta, 0.2 uM, per experiment
# [10] = IL-1beta, 0.6 uM, per experiment
# [11] = IL-1beta, 63 uM, per experiment
# [12] = (S)-2 concentration 0.05 (unit not given)
# [13] = (S)-2 concentration 0.4 (unit not given)
# [14] = (S)-2 concentration 1 (unit not given)
# [15] = (S)-2 concentration 4 (unit not given)
# [16] = (S)-2 concentration 11 (unit not given)
# [17] = (S)-2 concentration 33 (unit not given)
# [18] = (S)-2 concentration 100 (unit not given)
structure (smiles),measurement,setting,value
Cc1ccc2c(c1)NC(=O)[C@@]2(c1cn[nH]c1)c1cc(-c2ccc(C(=O)O)cc2C(=O)O)ccc1O [Compound (S)-2],reporter activity induced by hIL-1β,[1],efficiently inhibited the reporter activity induced by hIL-1β
same,"RGA HEK293, average",[1]; 3.125 uM,29.4705 and 28.9635 and 25.1151 and 32.9049 and 27.4138 and 39.0499 and 38.2996 and 37.0235
same,"RGA HEK293, curve fit",[1]; 3.125 uM,30.4654 and 27.1823 and 20.8299 and 28.629 and 26.4966 and 33.5898 and 33.5814 and 32.8647
same,"RGA HEK293, average",[1]; 6.25 uM,54.0943 and 50.2167 and 45.7315 and 52.6564 and 46.7509 and 54.9517 and 53.8737 and 52.9197
same,"RGA HEK293, curve fit",[1]; 6.25 uM,53.4932 and 49.1303 and 45.443 and 53.6627 and 46.4685 and 55.6955 and 53.7771 and 53.2389
same,"RGA HEK293, average",[1]; 12.5 uM,72.3524 and 70.9823 and 68.0128 and 77.9349 and 67.4822 and 74.7182 and 71.0369 and 70.438
same,"RGA HEK293, curve fit",[1]; 12.5 uM,72.9412 and 71.3657 and 68.2903 and 76.9195 and 67.593 and 75.1363 and 72.2128 and 71.5012
same,"RGA HEK293, average",[1]; 25 uM,87.2975 and 85.2654 and 82.5363 and 87.9606 and 82.8729 and 86.3527 and 84.3067 and 83.9822
same,"RGA HEK293, curve fit",[1]; 25 uM,85.8483 and 86.5666 and 83.9461 and 90.5811 and 83.387 and 87.7879 and 85.1743 and 84.4134
same,"RGA HEK293, average",[1]; 50 uM,94.5457 and 94.2398 and 91.9589 and 95.03 and 93.0282 and 93.3172 and 89.9086 and 89.6999
same,"RGA HEK293, curve fit",[1]; 50 uM,93.0784 and 94.3616 and 92.5512 and 96.5403 and 92.3805 and 94.467 and 92.6851 and 92.0672
same,"RGA HEK293, average",[1]; 100 uM,97.772 and 97.6887 and 95.147 and 97.9006 and 96.9482 and 94.6055 and 95.59 and 95.4988
same,"RGA HEK293, curve fit",[1]; 100 uM,96.7406 and 97.7627 and 96.7045 and 98.7877 and 96.7132 and 97.5984 and 96.5496 and 96.1302
same,IC50,"[1]; Homo sapiens, hIL-1β, read-out: RGA HEK293 IC50",5.3 ± 0.3 µM
same,IC50,"[1]; Homo sapiens, source data, read-out: RGA HEK293 IC50, individual experiments",4.15 µM
same,IC50,"[1]; source data, read-out: RGA HEK293 IC50, individual experiments",6.4 µM and 5.37 µM and 5.67 µM and 6.98 µM and 4.84 µM and 5.05 µM and 4.72 µM
same,TR-FRET calculated % inhibition,IL-1β [2]; [6],-3% and -1% and 0%
same,TR-FRET raw data,IL-1β [2]; [6],90 and 159 and 163 and 162 and 161
same,TR-FRET calculated % inhibition,IL-1β [2]; [7],-1% and 1% and 0%
same,TR-FRET raw data,IL-1β [2]; [7],89 and 157 and 158 and 161
same,TR-FRET calculated % inhibition,IL-1β [2]; [8],1% and 3%
same,TR-FRET raw data,IL-1β [2]; [8],87 and 156 and 155 and 157
same,TR-FRET calculated % inhibition,IL-1β [2]; [9],10% and 7%
same,TR-FRET raw data,IL-1β [2]; [9],78 and 144 and 149 and 146 and 151
same,inhibition at 0.2 µM,"IL-1β [2]; IL-1beta, 0.2 uM, per experiment, read-out: TR-FRET calculated % inhibition",13%
same,TR-FRET calculated % inhibition,IL-1β [2]; [10],20% and 23% and 21%
same,TR-FRET raw data,IL-1β [2]; [10],67 and 130 and 131 and 128
same,inhibition at 0.6 µM,"IL-1β [2]; IL-1beta, 0.6 uM, per experiment, read-out: TR-FRET calculated % inhibition",28%
same,TR-FRET calculated % inhibition,"IL-1β [2]; IL-1beta, 2 uM, per experiment",40% and 39%
same,inhibition at 2 µM,"IL-1β [2]; IL-1beta, 2 uM, per experiment, read-out: TR-FRET calculated % inhibition",55%
same,TR-FRET calculated % inhibition,"IL-1β [2]; IL-1beta, 6 uM, per experiment",61% and 62% and 60%
same,inhibition at 6 µM,"IL-1β [2]; IL-1beta, 6 uM, per experiment, read-out: TR-FRET calculated % inhibition",72%
same,TR-FRET calculated % inhibition,"IL-1β [2]; IL-1beta, 20 uM, per experiment",80% and 78% and 79%
same,inhibition at 20 µM,"IL-1β [2]; IL-1beta, 20 uM, per experiment, read-out: TR-FRET calculated % inhibition",88%
same,TR-FRET calculated % inhibition,IL-1β [2]; [11],92%
same,TR-FRET raw data,IL-1β [2]; [11],16 and 27 and 29 and 28
same,inhibition at 63 µM,"IL-1β [2]; IL-1beta, 63 uM, per experiment, read-out: TR-FRET calculated % inhibition",95%
same,TR-FRET raw data,"IL-1β [2]; IL-1beta, 200 uM, per experiment",12 and 16 and 17
same,inhibition at 200 µM,"IL-1β [2]; IL-1beta, 200 uM, per experiment, read-out: TR-FRET calculated % inhibition",100%
same,IC50,"IL-1β [2]; Il1b wt, read-out: TR-FRET IC50, individual experiments",2.1 µM and 4.2 µM and 4.6 µM and 4.4 µM and 4.7 µM
same,IC50,IL-1β [2]; read-out: TR-FRET IL-1β IC50,4 ± 1.1 µM
same,koff,IL-1β [3]; kinetic fit,0.12 s⁻¹
same,kon,IL-1β [3]; kinetic fit,120000 M⁻¹ s⁻¹
same,Kd,"IL-1β [3]; source data, read-out: SPR Kd, Mean",1.1 µM
same,Kd,"IL-1β [3]; source data, read-out: SPR Kd, individual experiments (Exp1-5)",1.1 µM (2×) and 1 µM
same,Kd,"IL-1β [3]; steady-state fit, 1:1 Langmuir, read-out: SPR KD",1.1 µM
same,reporter activity with hIL-1α as trigger,[4],ineffective
same,block of hIL-1β driven IL-6 release,[5],could inhibit the response to hIL-1β
same,"inhibition, Mean",[5]; [12],11.8111
same,"inhibition, replicates of EXP1, EXP2, EXP3",[5]; [12],1.099 and 7.654 and 32.9874 and 11.239 and 6.325 and 15.536 and -5.489 and 15.493 and 21.4551
same,"inhibition, replicates of EXP1, EXP2, EXP3",[5]; (S)-2 concentration 0.1 (unit not given),18.345 and 33.8012 and 24.896 and 0.607 and 18.6036 and 23.695 and -10.879 and 23.6096
same,"inhibition, Mean",[5]; [13],16.1795
same,"inhibition, replicates of EXP1, EXP2, EXP3",[5]; [13],6.922 and -13.568 and 28.7773 and 15.933 and -2.853 and 20.6147 and 21.633 and -16.264 and 22.2291
same,"inhibition, Mean",[5]; [14],20.6552
same,"inhibition, replicates of EXP1, EXP2, EXP3",[5]; [14],28.445 and 6.394 and 37.2847 and 8.462 and 8.741 and 33.0478 and 30.776 and 11.643 and 21.1029
same,"inhibition, Mean",[5]; [15],41.6476
same,"inhibition, replicates of EXP1, EXP2, EXP3",[5]; [15],30.652 and 40.964 and 60.1425 and 37.001 and 32.643 and 49.8155 and 34.125 and 37.671 and 51.8132
same,"inhibition, Mean",[5]; [16],62.727
same,"inhibition, replicates of EXP1, EXP2, EXP3",[5]; [16],59.128 and 61.883 and 67.9669 and 57.955 and 65.648 and 69.7834 and 54.055 and 63.991 and 64.1355
same,"inhibition, Mean",[5]; [17],85.133
same,"inhibition, replicates of EXP1, EXP2, EXP3",[5]; [17],83.359 and 83.395 and 85.1881 and 82.704 and 84.749 and 90.3418 and 80.717 and 88.643 and 87.1001
same,"inhibition, Mean",[5]; [18],92.537
same,"inhibition, replicates of EXP1, EXP2, EXP3",[5]; [18],91.3 and 94.175 and 93.9868 and 93.148 and 93.985 and 90.8655 and 91.665 and 91.77 and 91.9373
same,Mean OD (OD 450nm),[5]; hu IL-1b 0 pg/mL,0.033
same,"IL-1beta (mean, SD): mean readout (IL-6 release)",[5]; hu IL-1b 0 pg/mL,0
same,Mean OD (OD 450nm),[5]; hu IL-1b 40 pg/mL,0.067
same,"IL-1beta (mean, SD): mean readout (IL-6 release)",[5]; hu IL-1b 40 pg/mL,0
same,Mean OD (OD 450nm),[5]; hu IL-1b 80 pg/mL,0.219
same,"IL-1beta (mean, SD): mean readout (IL-6 release)",[5]; hu IL-1b 80 pg/mL,866.8
same,Mean OD (OD 450nm),[5]; hu IL-1b 120 pg/mL,0.313
same,"IL-1beta (mean, SD): mean readout (IL-6 release)",[5]; hu IL-1b 120 pg/mL,1562
same,Mean OD (OD 450nm),[5]; hu IL-1b 160 pg/mL,0.45
same,"IL-1beta (mean, SD): mean readout (IL-6 release)",[5]; hu IL-1b 160 pg/mL,2574.8
same,Mean OD (OD 450nm),[5]; hu IL-1b 200 pg/mL,0.463
same,"IL-1beta (mean, SD): mean readout (IL-6 release)",[5]; hu IL-1b 200 pg/mL,2669.4
same,IC50,"[5]; Homo sapiens, Fibroblast, 6 h, human dermal fibroblasts, hIL-1β, 6 h, read-out: IL-6 release IC50",7.9 ± 2 µM
same,IL-6 release IC50,"[5]; human dermal fibroblasts, hIL-1β, 6 h",single digit micromolar range
same,IC50,"[5]; source data, read-out: IL-6 IC50, individual experiments",18.8 µM and 26.2 µM and 7.43 µM and 6.22 µM and 5.77 µM and 5.73 µM and 4.59 µM and 7.91 µM and 8.11 µM and 5.61 µM and 6.38 µM
